Source: patent US4175081A, “5-Substituted thiadiazole ureas” (priority 1977, dated 1979)

Experiments:
Johnson grass (JG) [1] = assay: Post-emergence herbicide test; type: in vivo, Sorgum helepense; conditions: Sorghum halepense, 336 h, two weeks after treatment; for pest or weed control: 2 lb/acre; for pest or weed control at 4483.4 g/ha: 4 lb/acre
Outline: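 Visual injury or control scores taken 2 weeks after a post-emergence spray of pot-grown plants. Application was 8 lbs/acre (or 4 lbs/acre) in 38 gal/acre. Plants were held in the greenhouse with sub-irrigation only.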

Cotton (CT) [2] = assay: Post-emergence herbicide test; type: in vivo, Gossypium hirsutum var. DPL smooth leaf; conditions: Gossypium hirsutum, post-emergence, 336 h, two weeks after treatment; for pest or weed control at 2241.7 g/ha: 2 lb/acre; for pest or weed control at 4483.4 g/ha: 4 lb/acre
Outline: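 This greenhouse post-emergence test measured how well spray treatments controlled cotton. Seedlings of Gossypium hirsutum var. DPL smooth leaf, with expanded cotyledons and a first true leaf 1' in length, were sprayed with 50 ml formulations in a belt-fed spray hood. They were then returned to the greenhouse and watered only by sub-irrigation. Injury was scored visually as % control after two weeks.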

Amaranth pigweed (PW) [3] = assay: Post-emergence herbicide test; type: in vivo, Amaranthus retroflexus; conditions: 336 h, two weeks after treatment; for pest or weed control at 4483.4 g/ha: 4 lb/acre
Outline: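 Visual injury or control ratings were made two weeks after spraying, with greenhouse watering by sub-irrigation only. Treatment was post-emergence, when pigweed seedlings had 1 or 2 true leaves, at 8 lbs active compound per acre (4 lbs/acre formulations also made) in a 38 gallons-per-acre spray volume.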

Amaranth pigweed (PW) [4] = assay: Pre-emergence herbicide test; type: in vivo, Amaranthus retroflexus; conditions: 336 h, two weeks after treatment; for pest or weed control at 4483.4 g/ha: 4 lb/acre
Outline: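 Visual injury or control ratings were made at two weeks on pre-emergence pots, sub-irrigated in the greenhouse. Seeds were sown a day before a hood spray delivering 8 lbs/acre (or 4 lbs/acre) of compound in 38 gallons per acre.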

Crabgrass (CG) [5] = assay: Post-emergence herbicide test; type: in vivo, Digitaria sanquinalis; conditions: Digitaria sanguinalis, post-emergence, 336 h, two weeks after treatment; for pest or weed control: 2 lb/acre; for pest or weed control at 4483.4 g/ha: 4 lb/acre
Outline: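 Crabgrass (Digitaria sanquinalis) was surface seeded individually in 3' plastic pots of potting soil, covered with screened soil, and watered by sub-irrigation in greenhouse trays. Planting was staggered so seedlings reached the target stage together. Post-emergence sprays were applied in a hood with a removable belt and fixed nozzle, and control was visually rated two weeks after treatment.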

Cotton (CT) [6] = assay: Pre-emergence herbicide test; type: in vivo, Gossypium hirsutum var. DPL smooth leaf; conditions: Gossypium hirsutum, 336 h, two weeks after treatment; for pest or weed control at 2241.7 g/ha: 2 lb/acre; for pest or weed control at 4483.4 g/ha: 4 lb/acre
Outline: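 Visual injury/control ratings were taken at two weeks post-spray. Pots seeded a day earlier received compound pre-emergence at 8 lbs/acre, or 4 lbs/acre, in a 38 gallon/acre spray volume, and were then held in the greenhouse, watered only from below.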

Turnip (TP) [7] = assay: Post-emergence herbicide test; type: in vivo, Brassica sp.; conditions: Brassica rapa, post-emergence, 336 h, two weeks after treatment; for pest or weed control at 2241.7 g/ha: 2 lb/acre; for pest or weed control at 4483.4 g/ha: 4 lb/acre
Outline: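 A greenhouse post-emergence herbicide test on turnip. Seeds were sown on the surface of potting soil in 3' plastic pots, lightly covered with screened soil and watered from below. Planting was timed so seedlings had 1 or 2 true leaves above the cotyledons at spraying, done in a hood with a fixed nozzle. Control or injury was scored by eye after two weeks.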

Barnyard grass (BG) [8] = assay: Pre-emergence herbicide test; type: in vivo; conditions: Echinochloa crus-galli, 336 h, two weeks after treatment; for pest or weed control at 2241.7 g/ha: 2 lb/acre; for pest or weed control at 4483.4 g/ha: 4 lb/acre
Outline: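 Greenhouse pre-emergence spray test: pots seeded one day before treatment received compound at rates of 8 or 4 lb/acre (38 gal/acre). Visual injury/control scores for Echinochloa crus-galli taken at two weeks, with watering by sub-irrigation only.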

Turnip (TP) [9] = assay: Pre-emergence herbicide test; type: in vivo, Brassica sp.; conditions: Brassica rapa, pre-emergence, 336 h, two weeks after treatment; for pest or weed control at 2241.7 g/ha: 2 lb/acre; for pest or weed control at 4483.4 g/ha: 4 lb/acre
Outline: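 In this pre-emergence greenhouse test, turnip was seeded on the surface of potting soil in 3' plastic pots, lightly covered with screened soil, and watered from below. One day later the pots were sprayed in a belt-fed spray hood. Watering continued only by sub-irrigation, and percent control was visually scored two weeks after treatment.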

Corn (CN) [10] = assay: Post-emergence herbicide test; type: in vivo; conditions: Zea mays, 336 h, two weeks after treatment; for pest or weed control: 2 lb/acre; for pest or weed control at 4483.4 g/ha: 4 lb/acre
Outline: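 Greenhouse seedlings grown in potting soil and sprayed post-emergence at 8 lbs compound/acre (formulations also made for 4 lbs/acre) in 38 gallons/acre spray volume. Watering by sub-irrigation only. Injury or control rated visually two weeks after treatment.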

Corn (CN) [11] = assay: Pre-emergence herbicide test; type: in vivo; conditions: Zea mays, 336 h, two weeks after treatment; for pest or weed control at 2241.7 g/ha: 2 lb/acre; for pest or weed control at 4483.4 g/ha: 4 lb/acre
Outline: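 Visual injury/control ratings were made 2 weeks post-spray on corn pots seeded (4 seeds, seed-diameter depth) the day before treatment. Application was a belt-hood spray of 38 gal/acre delivering 8 lbs active per acre, with a 4 lbs/acre rate also formulated. Watering was by sub-irrigation throughout.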

Barnyard grass (BG) [12] = assay: Post-emergence herbicide test; type: in vivo; conditions: Echinochloa crus-galli, 336 h, two weeks after treatment; for pest or weed control at 2241.7 g/ha: 2 lb/acre
Outline: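 Greenhouse pot-grown barnyard grass seedlings sprayed post-emergence at 8 lbs active compound per acre (some at 4 lbs/acre) in 38 gallons per acre, then sub-irrigated. Injury or control rated visually two weeks after treatment.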

Johnson grass (JG) [13] = assay: Pre-emergence herbicide test; type: in vivo, Sorgum helepense; conditions: Sorghum halepense, 336 h, two weeks after treatment; for pest or weed control at 2241.7 g/ha: 2 lb/acre; for pest or weed control at 4483.4 g/ha: 4 lb/acre
Outline: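 Visual injury or control rating two weeks post-treatment, after pre-emergence spray of 8 or 4 lbs active per acre (38 gal/acre) onto pots sown the previous day. Greenhouse watering by sub-irrigation only.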

Bean (BN) [14] = assay: Pre-emergence herbicide test; type: in vivo, Phaseolus vulgaris var. Black Valentine; conditions: Phaseolus vulgaris, 336 h, two weeks after treatment; for pest or weed control at 2241.7 g/ha: 2 lb/acre; for pest or weed control at 4483.4 g/ha: 4 lb/acre
Outline: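 Visual injury/control ratings were taken two weeks post-spray on sub-irrigated Phaseolus vulgaris var. Black Valentine. Pots were sown a day before treatment. Pre-emergence spray delivered 8 lbs actual compound per acre (or 4 lbs/acre) at 38 gallons per acre.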

Bean (BN) [15] = assay: Post-emergence herbicide test; type: in vivo, Phaseolus vulgaris var. Black Valentine; conditions: Phaseolus vulgaris, post-emergence, 336 h, two weeks after treatment; for pest or weed control at 2241.7 g/ha: 2 lb/acre; for pest or weed control at 4483.4 g/ha: 4 lb/acre
Outline: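 Bean seedlings (Phaseolus vulgaris var. Black Valentine) were grown in potting soil in 3' pots until the primary leaves expanded. They were then sprayed under a hood with a removable belt and fixed nozzle, using 50 ml formulations. Afterward they were returned to the greenhouse and watered only by sub-irrigation. Percent control was judged visually two weeks after treatment.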

Crabgrass (CG) [16] = assay: Pre-emergence herbicide test; type: in vivo, Digitaria sanquinalis; conditions: Digitaria sanguinalis, pre-emergence, 336 h, two weeks after treatment; for pest or weed control: 2 lb/acre; for pest or weed control at 4483.4 g/ha: 4 lb/acre
Outline: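 Crabgrass (Digitaria sanquinalis) was surface seeded in 3' plastic pots of potting soil, covered with screened soil, and watered by sub-irrigation in greenhouse trays. Pots were seeded one day before spraying in a hood with a moving belt and fixed nozzle. Plants stayed in the greenhouse on sub-irrigation, and pre-emergence control was rated visually two weeks after treatment.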

SMILES	pest or weed control (Johnson grass (JG) [1]) [%]	pest or weed control at 4483.4 g/ha (Johnson grass (JG) [1]) [%]	pest or weed control at 2241.7 g/ha (Cotton (CT) [2]) [%]	pest or weed control at 4483.4 g/ha (Cotton (CT) [2]) [%]	pest or weed control at 4483.4 g/ha (Amaranth pigweed (PW) [3]) [%]	pest or weed control at 4483.4 g/ha (Amaranth pigweed (PW) [4]) [%]	pest or weed control (Crabgrass (CG) [5]) [%]	pest or weed control at 4483.4 g/ha (Crabgrass (CG) [5]) [%]	pest or weed control at 2241.7 g/ha (Cotton (CT) [6]) [%]	pest or weed control at 4483.4 g/ha (Cotton (CT) [6]) [%]	pest or weed control at 2241.7 g/ha (Turnip (TP) [7]) [%]	pest or weed control at 4483.4 g/ha (Turnip (TP) [7]) [%]	pest or weed control at 2241.7 g/ha (Barnyard grass (BG) [8]) [%]	pest or weed control at 4483.4 g/ha (Turnip (TP) [9]) [%]	pest or weed control at 4483.4 g/ha (Corn (CN) [10]) [%]	pest or weed control at 4483.4 g/ha (Corn (CN) [11]) [%]	pest or weed control at 4483.4 g/ha (Johnson grass (JG) [13]) [%]	pest or weed control at 4483.4 g/ha (Bean (BN) [14]) [%]	pest or weed control at 4483.4 g/ha (Bean (BN) [15]) [%]	pest or weed control at 4483.4 g/ha (Crabgrass (CG) [16]) [%]	other results
CCCSc1nnc(N(C)C(=O)N(C)C)s1 [Example 66]	50	60	100	100	100	100	50	100	80	100	100	100	30	100	100	50	100	100	100	100	pest or weed control at 2241.7 g/ha (Amaranth pigweed (PW) [3]; 2 lb/acre): 100%; pest or weed control at 2241.7 g/ha (Amaranth pigweed (PW) [4]; 2 lb/acre): 100%; pest or weed control at 4483.4 g/ha (Barnyard grass (BG) [8]): 100%; pest or weed control at 2241.7 g/ha (Turnip (TP) [9]): 50%; pest or weed control (Corn (CN) [10]): 30%; pest or weed control at 2241.7 g/ha (Corn (CN) [11]): 0%; pest or weed control at 2241.7 g/ha (Barnyard grass (BG) [12]): 60%; pest or weed control at 4483.4 g/ha (Barnyard grass (BG) [12]; 4 lb/acre): 70%; pest or weed control at 2241.7 g/ha (Johnson grass (JG) [13]): 20%; pest or weed control at 2241.7 g/ha (Bean (BN) [14]): 100%; pest or weed control at 2241.7 g/ha (Bean (BN) [15]): 90%; pest or weed control (Crabgrass (CG) [16]): 30%
CNC(=O)Nc1nnc(SCc2ccc(Cl)cc2)s1 [Example 87]	–	–	–	–	–	–	–	–	–	–	–	–	–	–	–	–	–	–	–	–	pest or weed control at 8966.8 g/ha (Johnson grass (JG) [1]; 8 lb/acre): 10%; pest or weed control at 8966.8 g/ha (Cotton (CT) [2]; 8 lb/acre): 70%; pest or weed control at 8966.8 g/ha (Amaranth pigweed (PW) [3]; 8 lb/acre): 40%; pest or weed control at 8966.8 g/ha (Amaranth pigweed (PW) [4]; 8 lb/acre): 70%; pest or weed control at 8966.8 g/ha (Crabgrass (CG) [5]; 8 lb/acre): 20%; pest or weed control at 8966.8 g/ha (Cotton (CT) [6]; 8 lb/acre): 50%; pest or weed control at 8966.8 g/ha (Turnip (TP) [7]; 8 lb/acre): 60%; pest or weed control at 8966.8 g/ha (Barnyard grass (BG) [8]; 8 lb/acre): 20%; pest or weed control at 8966.8 g/ha (Turnip (TP) [9]; 8 lb/acre): 10%; pest or weed control at 8966.8 g/ha (Corn (CN) [10]; 8 lb/acre): 10%; pest or weed control at 8966.8 g/ha (Corn (CN) [11]; 8 lb/acre): 10%; pest or weed control at 8966.8 g/ha (Barnyard grass (BG) [12]; 8 lb/acre): 20%; pest or weed control at 8966.8 g/ha (Johnson grass (JG) [13]; 8 lb/acre): 20%; pest or weed control at 8966.8 g/ha (Bean (BN) [14]; 8 lb/acre): 100%; pest or weed control at 8966.8 g/ha (Bean (BN) [15]; 8 lb/acre): 100%; pest or weed control at 8966.8 g/ha (Crabgrass (CG) [16]; 8 lb/acre): 10%
CNC(=O)Nc1nnc(C(F)F)s1 [Example 67]	40	90	100	100	100	100	80	80	0	80	100	100	50	100	70	70	50	90	100	90	pest or weed control at 2241.7 g/ha (Turnip (TP) [9]): 60%; pest or weed control (Corn (CN) [10]): 40%; pest or weed control at 2241.7 g/ha (Corn (CN) [11]): 0%; pest or weed control at 2241.7 g/ha (Barnyard grass (BG) [12]): 80%; pest or weed control at 2241.7 g/ha (Johnson grass (JG) [13]): 40%; pest or weed control at 2241.7 g/ha (Bean (BN) [14]): 0%; pest or weed control at 2241.7 g/ha (Bean (BN) [15]): 90%; pest or weed control (Crabgrass (CG) [16]): 80%
CNC(=O)Nc1nnc(SCC#N)s1 [Example 88]	–	20	–	50	20	10	–	20	–	50	–	40	–	70	20	10	10	100	30	10	pest or weed control at 4483.4 g/ha (Barnyard grass (BG) [8]): 10%
